Consider 19 molecules from patent US8962608B2, “Cycloalkylnitrile pyrazole carboxamides as janus kinase inhibitors” (Merck Sharp & Dohme Corp., priority 2011, dated 2015).

One may read the IC50 as the midpoint of a concentration-inhibition curve.

Where a name gives a salt, the structure may show the parent alone.

For experiment [1], the target named is JAK1 (recombinant purified GST-tagged catalytic domain) (Homo sapiens (Human), UniProt P23458). Kind of experiment: biochemical.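 Also: biochemical assay with HTRF read-out.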
Experiment [2] concerns the target JAK2 (recombinant purified GST-tagged catalytic domain) (Homo sapiens (Human), UniProt O60674). Kind of experiment: biochemical.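 Also: biochemical JAK kinase assay with HTRF detection.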

Chain of JAK1 (recombinant purified GST-tagged catalytic domain) (P23458 875-1153): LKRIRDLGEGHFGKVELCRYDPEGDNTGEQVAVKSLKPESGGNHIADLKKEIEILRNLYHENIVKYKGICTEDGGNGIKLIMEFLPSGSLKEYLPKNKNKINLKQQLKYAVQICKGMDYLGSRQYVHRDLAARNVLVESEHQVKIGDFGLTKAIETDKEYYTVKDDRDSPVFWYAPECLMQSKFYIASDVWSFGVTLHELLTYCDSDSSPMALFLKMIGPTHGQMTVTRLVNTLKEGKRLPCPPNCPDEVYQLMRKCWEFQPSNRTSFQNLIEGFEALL
Chain of JAK2 (recombinant purified GST-tagged catalytic domain) (O60674 849-1124): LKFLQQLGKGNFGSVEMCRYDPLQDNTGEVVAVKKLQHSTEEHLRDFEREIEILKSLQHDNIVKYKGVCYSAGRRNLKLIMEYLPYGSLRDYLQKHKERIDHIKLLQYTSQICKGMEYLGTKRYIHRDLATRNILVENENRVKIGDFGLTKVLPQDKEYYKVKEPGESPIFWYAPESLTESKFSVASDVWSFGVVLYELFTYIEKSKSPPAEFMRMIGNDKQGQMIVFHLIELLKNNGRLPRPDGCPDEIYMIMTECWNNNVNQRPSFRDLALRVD

With `Cn1cc(-c2cc(Nc3nn([C@H]4CCCC[C@@H]4C#N)cc3C(N)=O)ccn2)cn1` (racemic) [Example 17-22, 1-[(1S,2S and 1R,2R)-2-cyanocyclohexyl]-3-{[2-(1-methyl-1H-pyrazol-4-yl)pyridin-4-yl]amino}-1H-pyrazole-4-carboxamide], the IC50 in experiment [1] was 3 nM; in experiment [2] it was 60 nM.
Consider `N#C[C@H]1CCCC[C@@H]1n1cc(C(N)=O)c(Nc2ccc(CN)cc2)n1` (racemic) [Example 17-45, 3-{[4-(aminomethyl)phenyl]amino}-1-[(1S,2S and 1R,2R)-2-cyanocyclohexyl]-1H-pyrazole-4-carboxamide], for which the results for the IC50 in experiment [1] and in experiment [2] were 3 nM and 10 nM, respectively.
On to `N#C[C@H]1CCCCC1n1cc(C(N)=O)c(Nc2ccc(S(=O)(=O)CF)cc2)n1` (mixture of isomers) [Example 17-65, 1-[(1S,2S and 1R,2R)-2-cyanocyclohexyl]-3-({4-[(fluoromethyl)sulfonyl]phenyl}amino)-1H-pyrazole-4-carboxamide], for which the 50% inhibitory concentration (IC50) in experiment [1] came out at 0.16 nM; in experiment [2], 2 nM.
On the same counts, the results for `N#C[C@H]1CCCC[C@@H]1n1cc(C(N)=O)c(Nc2ccc(F)c(F)c2)n1` (racemic) [Example 17-100, 1-[(1S,2S and 1R,2R)-2-cyanocyclohexyl]-3-[(3,4-difluorophenyl)amino]-1H-pyrazole-4-carboxamide] are 4 nM and 34 nM.
On the same counts, the results for `N#C[C@H]1CCCC[C@@H]1n1cc(C(N)=O)c(Nc2ccc(Cl)cc2)n1` (racemic) [Example 17-104, 3-[(4-chlorophenyl)amino]-1-[(1S,2S and 1R,2R)-2-cyanocyclohexyl]-1H-pyrazole-4-carboxamide] are 2 nM and 25 nM.
With `Cn1cc(-c2ccc(Nc3nn(C4CCCC[C@@H]4C#N)cc3C(N)=O)cn2)cn1` (mixture of isomers) [Example 21-2, 1-[(1S,2S and 1R,2R)-2-cyanocyclohexyl]-3-{[6-(1-methyl-1H-pyrazol-4-yl)pyridin-3-yl]amino)-1H-pyrazole-4-carboxamide], the IC50 in experiment [1] turned out to be 2 nM; in experiment [2] it was 15 nM.
`N#C[C@H]1CCCCC1n1cc(C(N)=O)c(Nc2ccc(-c3cn[nH]c3)nc2)n1` (mixture of isomers) [Example 21-3, 1-[(1S,2S and 1R,2R)-2-cyanocyclohexyl]-3-{[6-(1H-pyrazol-4-yl)pyridin-3-yl]amino}-1H-pyrazole-4-carboxamide]: the IC50 in experiment [1] amounted to 2 nM; in experiment [2] it was 16 nM.
The corresponding values for `N#C[C@H]1CCCC(F)[C@@H]1n1cc(C(N)=O)c(Nc2ccccc2)n1` (mixture of isomers) [Example 23-1, 1-[(1R,2S and 1S,2R)-2-Cyano-6-fluorocyclohexyl]-3-(phenylamino)-1H-pyrazole-4-carboxamide] are 5 nM and 60 nM.
As for `CN[C@@H]1CCC(n2cc(C(N)=O)c(Nc3ccc(F)cc3)n2)[C@@H](C#N)C1` (mixture of isomers) [Example 27-3, 1-[(1S,2S,4R and 1R,2R,4S)-2-cyano-4-(methylamino)cyclohexyl]-3-[(4-fluorophenyl)amino]-1H-pyrazole-4-carboxamide], the results for the IC50 in experiment [1] and in experiment [2] were 0.8 nM and 25 nM, respectively.
As for `CN[C@H]1CCC(n2cc(C(N)=O)c(Nc3ccc(F)cc3)n2)[C@@H](C#N)C1` (mixture of isomers) [Example 27-4, 1-[(1S,2S,4S and 1R,2R,4R)-2-cyano-4-(methylamino)cyclohexyl]-3-[(4-fluorophenyl)amino]-1H-pyrazole-4-carboxamide], the concentration for half-maximal inhibition (IC50) in experiment [1] is 1 nM; in experiment [2], 56 nM.
As to `N#C[C@H]1C[C@@H](N2CCOCC2)CCC1n1cc(C(N)=O)c(Nc2ccc(S(=O)(=O)C(F)(F)F)cc2)n1` (mixture of isomers) [Example 27-13, 1-[(1S,2S,4S and 1R,2R,4R)-2-cyano-4-(morpholin-4-yl)cyclohexyl]-3-({4-[(trifluoromethyl)sulfonyl]phenyl)amino)-1H-pyrazole-4-carboxamide], the values for the IC50 in experiment [1] and in experiment [2] were 0.3 nM and 6 nM, respectively.
On the same counts, the results for `N#C[C@H]1C[C@@H](N)CCC1n1cc(C(N)=O)c(Nc2ccc(F)cc2)n1` (mixture of isomers) [Example 29, (1S,3S,4S and 1R,3R,4R)-4-{4-Carbamoyl-3-[(4-fluorophenyl)amino]-1H-pyrazol-1-yl}-3-cyanocyclohexanaminium trifluoroacetate] are 1 nM and 35 nM.
`N#C[C@H]1C[C@@H](OC(=O)NC2CCCCC2)CCC1n1cc(C(N)=O)c(Nc2ccc(F)cc2)n1` (mixture of isomers) [Example 34-2, (1S,3S,4S and 1R,3R,4R)-4-{4-carbamoyl-3-[(4-fluorophenyl)amino]-1H-pyrazol-1-yl}-3-cyanocyclohexyl cyclohexylcarbamate]: the values for the IC50 in experiment [1] and in experiment [2] were 5 nM and 164 nM, respectively.
The corresponding values for `N#C[C@H]1C[C@H](OC(=O)NC2CCCCC2)CCC1n1cc(C(N)=O)c(Nc2ccc(F)cc2)n1` (mixture of isomers) [Example 34-5, (1R,3S,4S and 1S,3R,4R)-4-{4-carbamoyl-3-[(4-fluorophenyl)amino]-1H-pyrazol-1-yl}-3-cyanocyclohexyl cyclohexylcarbamate] are 7 nM and 88 nM.
On the same counts, the results for `CNC(=O)O[C@@H]1CCC(n2cc(C(N)=O)c(Nc3ccc(F)cc3)n2)[C@@H](C#N)C1` (mixture of isomers) [Example 34-6, (1R,3S,4S and 1S,3R,4R)-4-{4-carbamoyl-3-[(4-fluorophenyl)aminol-1H-pyrazol-1-yl}-3-cyanocyclohexyl methylcarbamate] are 1 nM and 12 nM.
On the same counts, the results for `CCNC(=O)O[C@@H]1CCC(n2cc(C(N)=O)c(Nc3ccc(F)cc3)n2)[C@@H](C#N)C1` (mixture of isomers) [Example 34-7, (1R,3S,4S and 1S,3R,4R)-4-{4-carbamoyl-3-[(4-fluorophenyl)aminol-1H-pyrazol-1-yl}-3-cyanocyclohexyl ethylcarbamate] are 0.85 nM and 9 nM.
Consider `CNC(=O)O[C@H]1CCC(n2cc(C(N)=O)c(Nc3ccc(F)cc3)n2)[C@@H](C#N)C1` (mixture of isomers) [Example 34-9, (1S,3S,4S and 1R,3R,4R)-4-{4-carbamoyl-3-[(4-fluorophenyl)aminol-1H-pyrazol-1-yl}-3-cyanocyclohexyl methylcarbamate], for which the IC50 turned out to be 3 nM in experiment [1] and 51 nM in experiment [2].
The corresponding values for `N#C[C@H]1C[C@@H](CF)CC[C@@H]1n1cc(C(N)=O)c(Nc2ccnc(F)c2)n1` (racemic) [Example 37, 1-[(1S,2S,4S and 1R,2R,4R)-2-Cyano-4-(fluoromethyl)cyclohexyl]-3-[(2-fluoropyridin-4-yl)amino]-1H-pyrazole-4-carboxamide] are 0.8 nM and 13 nM.
Consider `CS(=O)(=O)N[C@@H]1CC[C@H](n2cc(C(N)=O)c(Nc3ccc(Cl)cc3)n2)[C@@H](C#N)C1` (racemic) [Example 38-3, 3-[(4-chlorophenyl)amino]-1-{(1S,2S,4R and 1R,2R,4S)-2-cyano-4-[(methylsulfonyl)amino]cyclohexyl}-1H-pyrazole-4-carboxamide], for which the IC50 in experiment [1] was determined as 0.9 nM; in experiment [2], 8 nM.
